Data as given in article PMC9824012, “Exploring Antimicrobial Peptides Efficacy against Fire Blight (Erwinia amylovora)” (Plants, 2022).
Like-named read-outs stand apart in the source and are kept apart here. Ends that are not written are not given here.

How the values were obtained:
Erwinia amylovora [1] = test: Spot test screening of AMPs on plates; format: cell-based, Erwinia amylovora strain PGL Z1; set-up: key to Spot test result at 1 mM / Spot test result at 500 µM / Spot test result at 250 µM / Spot test result at 100 µM / Spot test result at 50 µM / Spot test result at 25 µM / Spot test result at 12.5 µM: +: Clear plaque formation; -: no plaque formation; details: for Spot test result at 12.5 µM: 5 µL peptide at 12.5 µM spotted on plate with E. amylovora 10^8 CFU/mL; for Spot test result at 12.5 µM / Spot test result at 25 µM / Spot test result at 50 µM / Spot test result at 100 µM / Spot test result at 250 µM / Spot test result at 500 µM / Spot test result at 1 mM: overnight at 25 °C; for Spot test result at 25 µM: 5 µL peptide at 25 µM spotted on plate with E. amylovora 10^8 CFU/mL; for Spot test result at 50 µM: 5 µL peptide at 50 µM spotted on plate with E. amylovora 10^8 CFU/mL; for Spot test result at 100 µM: 5 µL peptide at 100 µM spotted on plate with E. amylovora 10^8 CFU/mL; for Spot test result at 250 µM: 5 µL peptide at 250 µM spotted on plate with E. amylovora 10^8 CFU/mL; for Spot test result at 500 µM: 5 µL peptide at 500 µM spotted on plate with E. amylovora 10^8 CFU/mL; for Spot test result at 1 mM: 5 µL peptide at 1 mM spotted on plate with E. amylovora 10^8 CFU/mL; for Spot test, killing of E. amylovora at 50 µM (in words): peptide 50 µM
Procedure: The bacterial material consisted of E. amylovora strain PGL Z1, isolated in 2013 from pear in Apulia region (Italy), and Xanthomonas campestris pv. campestris strain CFBP 1710 (X. campestris), isolated in 1975 from Brassica oleracea var. botrytis in France, which was used as a control to investigate the bactericidal activity and action mode of AMPs against two different bacteria. The bacterial strains were cultured on yeast extract peptone glucose agar (YPGA) and broth (YPG) media, consisting of 0.5% yeast extract, 0.5% peptone, 1% glucose and 1.5% agar. E. amylovora and X. campestris cell suspensions were prepared in sterile distilled water and the suspensions were adjusted to an optical density at 600 nm (OD600) of 0.1, which corresponds approximately to 10^8 CFU/mL.
The nine AMPs were screened using the spot test to select those with the best antibacterial activity against E. amylovora. Briefly, 300 µL of E. amylovora suspension (10^8 CFU/mL) was poured into the plates and maintained at room temperature for 15 min. Subsequently, 5 μL from each peptide at different concentrations (1000, 500, 250, 100, 50, 25 and 12.5 μM) was spotted onto the surface of the plates, followed by overnight incubation at 25 °C. Sterile distilled water was spotted in the plates as a control.
Supplementary Table S1. Results of the spot tests for the nine antimicrobial peptides used against Erwinia
Ascaphin-8 GF-19 + + + + + - -
DASamP1 FF-13 + + + - - - -
DASamP2 IL-14 + + + + + - -
Lycotoxin I IL-25 + + + + - - -
Maculatin 1.3 GF-21 + + + - - - -
Piscidin 1 FG-22 + + + + + - -
BP178 KL-29 + + + + + + -
RIJK2 RV-12 + + + - - - -
+: Clear plaque formation; -: no plaque formation.

immature pear fruits = format: in vivo, pear (cv. 'Recchia falsa')
Procedure: (§1) The possible toxicity of the selected peptides was evaluated using immature pear fruits (cv. ‘Recchia falsa’), and horse erythrocyte cells, respectively, as plant and animal cell models. Briefly, six fruits for each peptide were pricked to approximately 5 mm deep and inoculated with 100 µL of the corresponding peptide at 50 and 250 µM concentrations. Fruits were kept in a chamber at room temperature for 5 days and repeatedly examined for the development of lesions. The peptide toxicity was measured as lesion diameter. Erythrocytes from a horse blood sample (provided by the University of Bari, Department of Veterinary Medicine, Valenzano, Italy) were used for the hemolytic assay. The erythrocytes were challenged with AMPs at 50 and 250 µM for 3 h and their possible hemolytic activity was observed under light microscope.

horse erythrocyte cells = format: cell-based
Procedure: as §1

Erwinia amylovora [2] = test: Fluorescence microscopy LIVE/DEAD BacLight (SYTO9/PI); format: cell-based, Erwinia amylovora strain PGL Z1; details: 1 h, calculated from SYTO9 and PI counts
Procedure: The bactericidal activity of the selected peptides (GF19, FG22, IL14, and KL29) was assessed by a test contact for 24 h, as described (Section 2.3), coupled with v-qPCR assay using the PMAxx™ (Biotium, Rome, Italy). PMAxx™ is a photo-reactive dye that binds to DNA with high affinity; upon cell lysis, it covalently attaches to disrupted DNA that cannot be amplified by PCR. This unique feature makes PMAxx™ extremely useful in selective detection of bacterial cells with intact plasma membranes by qPCR. Briefly, after 24 h at 25 °C, 200 µL of the mixture was transferred to a new tube and treated with PMAxx at a final concentration of 7.5 μM. Subsequently, samples were incubated in the dark at room temperature for 8 min, followed by photoactivation for 15 min. Genomic DNA of all samples was extracted using the cetyltrimethylammonium bromide (CTAB) method. v-qPCR was carried out in a thermocycler apparatus (Bio-Rad CFX96, BioRad, Milan, Italy), using Ea-lsc primers and conditions reported in Laforest et al.. The v-qPCR cycles consisted of an initial denaturation step of 95 °C for 5 min; 45 cycles of 95 °C for 30 s and 60 °C for 30 s with fluorescence readings at each cycle. For the FM assay, aliquots of E. amylovora suspension were incubated with 50 and 250 μM of selected peptides for 1 h at room temperature. The same protocol was used for X. campestris at different concentrations (100, 50, 25, 12.5, 6.25, 2 μM) using KL29 peptide, known for its potent bactericidal activity against X. campestris. The LIVE/DEAD ®BacLight™ viability kit (ThermoFisher Scientific, Milan, Italy) was used according to the manufacturer’s recommendation to assess the integrity of bacteria cells treated with the peptides at 1 h post-infection (Stocks, 2004). Briefly, 9 μL of sample was mixed with 0.5 μL of SYTO9 and 0.5 μL of propidium iodide (PI) for 15 min at room temperature in the dark. Photomicrographs were taken with a Nikon E800 microscope using a fluorescein isothiocyanate (480/30 excitation filter, DM505 dichroic mirror, 535/40 emission filter) and tetramethyl rhodamine isocyanate (546/10 excitation filter, DM575 dichroic mirror, 590 emission filter) fluorescence filter sets.
Supplementary Table S2. The statistical analysis consisted of counting the coloured spo ts (green: SYTO9 and red: PI) in the different channels of 10 replicas for the two concentrations of each antimicrobial peptide and the relative percentages of viable cells is calculated.
250 µM 50 µM % of viability
(1 picture or pasted object on this page, not shown here)

Erwinia amylovora [3] = test: In vivo antibacterial activity on inoculated immature pear fruits; set-up: species or system Erwinia amylovora on pear fruits (cv. 'Recchia falsa'); details: immature pears, 6 days at 25 °C, eight replicates
Procedure: To evaluate the in vivo antibacterial activity of selected AMPs, immature pear fruits (cv. ‘Recchia falsa’) were inoculated with E. amylovora and AMPs were applied. Briefly, ten-week-old pears were disinfected by immersion in a 70% ethanol solution for 2 min and then rinsed 3 times in sterile distilled water. Disinfected fruits were pricked to approximately 5 mm deep, with a sterile micropipette tip and inoculated with 20 µL of E. amylovora suspension (10^8 CFU/mL). Once the fruits had absorbed the bacteria, two concentrations of peptides (50 and 250 µM) were used; 20 µL of the concentration was introduced into the inoculation site and incubated in a humid chamber at 25 °C for 6 days. Fruits inoculated with sterile water and with E. amylovora suspension were included as controls. The experiment consisted of eight replicates per treatment, and symptoms were recorded at 6 days post-infection. The symptoms developed in immature pears (i.e., necrosis or bacterial exudates) were evaluated by measuring the diameter of necrotic lesions. The data were then analyzed using variance analysis (ANOVA), followed by Duncan’s multiple range test (α = 0.05), using SPSS statistical software (version 24.0, IBM, Armonk, N.Y., USA). All data were presented as mean values ± standard deviation (SD).

[4] = 100 µL peptide at 50 and 250 µM, 5 days at room temperature, six fruits per peptide
[5] = peptide 50 and 250 µM, 3 h, light microscope
[6] = 20 µL peptide at 50 µM into inoculation site
[7] = 20 µL peptide at 250 µM into inoculation site

Substance: RIVWVRIRRWFV-NH2 [RV12, RIJK2, synthetic antimicrobial peptide, synthesized by ProteoGenix]
- Spot test result at 12.5 µM (Erwinia amylovora [1]): -
- Spot test result at 25 µM (Erwinia amylovora [1]): -
- Spot test result at 50 µM (Erwinia amylovora [1]): -
- Spot test result at 100 µM (Erwinia amylovora [1]): -
- Spot test result at 250 µM (Erwinia amylovora [1]): +
- Spot test result at 500 µM (Erwinia amylovora [1]): +
- Spot test result at 1 mM (Erwinia amylovora [1]): +

Substance: GFKDLLKGAAKALVKTVLF-NH2 [GF19, Ascaphin-8]
- Spot test result at 12.5 µM (Erwinia amylovora [1]): -
- Spot test result at 25 µM (Erwinia amylovora [1]): -
- Spot test result at 50 µM (Erwinia amylovora [1]): +
- Spot test result at 100 µM (Erwinia amylovora [1]): +
- Spot test result at 250 µM (Erwinia amylovora [1]): +
- Spot test result at 500 µM (Erwinia amylovora [1]): +
- Spot test result at 1 mM (Erwinia amylovora [1]): +
- Spot test, killing of E. amylovora at 50 µM (in words) (Erwinia amylovora [1]): could kill E. amylovora
- Toxicity (hypersensitive or cytotoxic activity) on pear fruits (in words) (immature pear fruits; [4]): toxicologically safe for plant and animal cells
- Toxicity (hemolytic or cytotoxic activity) on horse erythrocytes (in words) (horse erythrocyte cells; [5]): toxicologically safe for plant and animal cells
- % of viability (Erwinia amylovora [2]; peptide 50 µM): 44%
- % of viability (Erwinia amylovora [2]; peptide 250 µM): 64%
- Reduction of fire blight symptoms (necrotic lesion diameter) (Erwinia amylovora [3]; [6]): 43%
- Reduction of fire blight symptoms (necrotic lesion diameter) (Erwinia amylovora [3]; [7]): 48%

Substance: IKWKKLLRAAKRIL-NH2 [IL14, DASamP2]
- Spot test result at 12.5 µM (Erwinia amylovora [1]): -
- Spot test result at 25 µM (Erwinia amylovora [1]): -
- Spot test result at 50 µM (Erwinia amylovora [1]): +
- Spot test result at 100 µM (Erwinia amylovora [1]): +
- Spot test result at 250 µM (Erwinia amylovora [1]): +
- Spot test result at 500 µM (Erwinia amylovora [1]): +
- Spot test result at 1 mM (Erwinia amylovora [1]): +
- Spot test, killing of E. amylovora at 50 µM (in words) (Erwinia amylovora [1]): could kill E. amylovora
- Toxicity (hypersensitive or cytotoxic activity) on pear fruits (in words) (immature pear fruits; [4]): toxicologically safe for plant and animal cells
- Toxicity (hemolytic or cytotoxic activity) on horse erythrocytes (in words) (horse erythrocyte cells; [5]): toxicologically safe for plant and animal cells
- % of viability (Erwinia amylovora [2]; peptide 50 µM): 15%
- % of viability (Erwinia amylovora [2]; peptide 250 µM): 48%
- Reduction of fire blight symptoms (necrotic lesion diameter) (Erwinia amylovora [3]; [6]): 61%
- Reduction of fire blight symptoms (necrotic lesion diameter) (Erwinia amylovora [3]; [7]): 76%

Substance: Lycotoxin I [IL25]
- Spot test result at 12.5 µM (Erwinia amylovora [1]): -
- Spot test result at 25 µM (Erwinia amylovora [1]): -
- Spot test result at 50 µM (Erwinia amylovora [1]): -
- Spot test result at 100 µM (Erwinia amylovora [1]): +
- Spot test result at 250 µM (Erwinia amylovora [1]): +
- Spot test result at 500 µM (Erwinia amylovora [1]): +
- Spot test result at 1 mM (Erwinia amylovora [1]): +

Substance: FFHHIFRGIVHVGKTIHRLVTG [FG22, Piscidin 1]
- Toxicity (hypersensitive or cytotoxic activity) on pear fruits (in words) (immature pear fruits; in vivo): toxicologically safe for plant and animal cells
- Toxicity (hemolytic or cytotoxic activity) on horse erythrocytes (in words) (horse erythrocyte cells): toxicologically safe for plant and animal cells

Substance: FFGKVLKLIRKIF-NH2 [FF13, DASamP1, synthetic antimicrobial peptide, synthesized by ProteoGenix]
- Spot test result at 12.5 µM (Erwinia amylovora [1]): -
- Spot test result at 25 µM (Erwinia amylovora [1]): -
- Spot test result at 50 µM (Erwinia amylovora [1]): -
- Spot test result at 100 µM (Erwinia amylovora [1]): -
- Spot test result at 250 µM (Erwinia amylovora [1]): +
- Spot test result at 500 µM (Erwinia amylovora [1]): +
- Spot test result at 1 mM (Erwinia amylovora [1]): +

Substance: GLLGLLGSVVSHVVPAIVGHF-NH2 [GF21, Maculatin 1.3, antimicrobial peptide of frog origin, synthesized by ProteoGenix]
- Spot test result at 12.5 µM (Erwinia amylovora [1]): -
- Spot test result at 25 µM (Erwinia amylovora [1]): -
- Spot test result at 50 µM (Erwinia amylovora [1]): -
- Spot test result at 100 µM (Erwinia amylovora [1]): -
- Spot test result at 250 µM (Erwinia amylovora [1]): +
- Spot test result at 500 µM (Erwinia amylovora [1]): +
- Spot test result at 1 mM (Erwinia amylovora [1]): +

Substance: VQFRIRVRIVIRK-NH2 [VK13, 1036, synthetic antimicrobial peptide, synthesized by ProteoGenix]
- Spot test result at 12.5 µM (Erwinia amylovora [1]): -
- Spot test result at 25 µM (Erwinia amylovora [1]): -
- Spot test result at 50 µM (Erwinia amylovora [1]): -
- Spot test result at 100 µM (Erwinia amylovora [1]): -
- Spot test result at 250 µM (Erwinia amylovora [1]): +
- Spot test result at 500 µM (Erwinia amylovora [1]): +
- Spot test result at 1 mM (Erwinia amylovora [1]): +
